Patent publication US10744104B2, “Neprilysin inhibitors” (THERAVANCE BIOPHARMA R&D IP, LLC, priority 2011, dated 2020)

Key:
[1] = biological target: T1, NEP (Homo sapiens (Human), UniProt P08473); experiment: Assay 1: in vitro enzyme inhibition assay at human NEP (fluorogenic peptide substrate); assay type: biochemical; details: for pKi: comparative examples, exact values
Protocol: The assays were performed in 384-well white opaque plates at 37° C. using the fluorogenic peptide substrates at a concentration of 10 μM in Assay Buffer (NEP: 50 mM HEPES, pH 7.5, 100 mM NaCl, 0.01% polyethylene glycol sorbitan monolaurate (Tween-20), 10 μM ZnSO4; ACE: 50 mM HEPES, pH 7.5, 100 mM NaCl, 0.01% Tween-20, 1 μM ZnSO4).
Test compounds were assayed over the range of concentrations from 10 μM to 20 pM. Test compounds were added to the enzymes and incubated for 30 minute at 37° C. prior to initiating the reaction by the addition of substrate. Reactions were terminated after 20 minutes of incubation at 37° C. by the addition of glacial acetic acid to a final concentration of 3.6% (v/v).
Inhibition constants were obtained by nonlinear regression of the data using the equation (GraphPad Software, Inc., San Diego, Calif.): v=v0/[1+(I/K′)] where v is the reaction rate, v0 is the uninhibited reaction rate, I is the inhibitor concentration and K′ is the apparent inhibition constant.

[2] = biological target: T1, NEP; details: change of carboxylic acid chain length versus succinic acid compound 21a; cited from earlier work

Compound | decrease in activity relative to 21a [2] [fold] | pKi [1] | also measured
O=C(N[C@H](Cc1ccc(-c2cccc(Cl)c2)cc1)C[C@@H](O)C(=O)O)C(=O)OCCC(F)(F)F [Example 2N, (2R,4R)-5-(3′-Chlorobiphenyl-4-yl)-2-hydroxy-4-[(3,3,3-trifluoropropoxyoxalyl)-amino]pentanoic Acid] | – | – | Ki ([1]; reported as ranges): ≤ 1 nM
C[C@H](CC(Cc1ccc(-c2ccccc2)cc1)NC(=O)CC(=O)O)C(=O)O (stereo partly drawn) [Example 21g] | 18 | – | –
C[C@H](C[C@@H](Cc1ccc(-c2ccccc2)cc1)NC(=O)CCCC(=O)O)C(=O)O [Example 21e] | 18 | – | –
C[C@H](C[C@@H](Cc1ccc(-c2ccccc2)cc1)NC(=O)CCCCC(=O)O)C(=O)O [Example 21f] | 65 | – | –
O=C(O)CCCC(=O)N[C@H](Cc1ccc(-c2ccccc2)cc1)CC(O)C(=O)O (stereo partly drawn) [Comparative Compound E, (R)-5-Biphenyl-4-yl-4-(4-carboxybutrylamino)-2-hydroxypentanoic Acid] | – | 7.3 | –
O=C(O)CCCC(=O)N[C@H](Cc1ccc(-c2ccccc2)cc1)C[C@@H](CO)C(=O)O [Comparative Compound H, (2S,4S)-5-Biphenyl-4-yl-4-(4-carboxy-butyrylamino)-2-hydroxmethylpentanoic Acid] | – | 8.6 | –
